Consider 18 molecules from patent publication US20100092385A1, “Novel Heteroaryl Substituted Imidazo [1,2-A] Pyridine Derivatives” (ASTRAZENECA AB, priority 2007, published 2010).

SMILES strings stand for the structures.

For this test, the target named is T1, synthetic Aβ 1-40 (Homo sapiens, UniProt P05067).
T1 construct: using synthetic Aβ 1-40 in 2.7 nM of [^3H]PIB
T1 sequence (P05067 672-711 limits assumed): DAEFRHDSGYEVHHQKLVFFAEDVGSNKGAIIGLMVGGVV
Put plainly: Competition binding assay. To be noted: [3H]PIB as radioligand (2.7 nM), synthetic Aβ 1-40, phosphate buffer pH 7.5, 30 min room temperature; read-out: IC50 in the competion binding assay. As to the method: Competition binding was performed in 384-well FB filter plates using synthetic Aβ 1-40 in 2.7 nM of [^3H]PIB (or another ^3H-labeled radioligand when so mentioned) in phosphate buffer at pH 7.5, by adding various concentrations of non-radioactive compounds originally dissolved in DMSO. The binding mixture was incubated for 30 min at room temperature, followed by vacuum filtration, and subsequently by washing twice with 1% Triton-X100. Scintillation fluid was thereafter added to the collected Aβ 1-40 on the filter plate, and the activity of the bound remaining radioligand ([^3H]PIB or another ^3H-labeled radioligand) was measured using 1450 Microbeta from PerkinElmer. Specific binding was determined according to the competion binding assay described herein. The determined IC50's in the competion binding assays (using [^3H]PIB as radioligand) of […] of the present invention are shown in Table 1.
Consider `CNc1ccc(-c2cn3cc(C(=O)OCCF)ccc3n2)cn1` [Example 22, 2-Fluoroethyl 2-(6-methylaminopyridin-3-yl)imidazo[2,1-t]pyridine-6-carboxylate], for which the IC50 came to 469 nM.
For `COc1ccc2nc(-c3ccc(C(N)=O)nc3)cn2c1` [Example 16, 5-(6-Methoxyimidazo[1,2-a]pyridin-2-yl)pyridine-2-carboxamide], the IC50 is 2310 nM.
Regarding `CNc1ccc(-c2cn3cc(C(=O)OC)ccc3n2)cn1` [Example 21, Methyl 2-(6-methylaminopyridin-3-yl)imidazo[2,1-f]pyridine-6-carboxylate], the IC50 worked out at 960 nM.
On to `CN(C)c1ccc(-c2cn3cc(O)ccc3n2)cn1` [Example 4, 2-[6-(Dimethylamino)pyridin-3-yl]imidazo[1,2-a]pyridin-6-ol], for which the half-maximal inhibitory concentration (IC50) is 126 nM.
For the molecule `COc1ccc2nc(-c3ccc(N4CCNCC4)nc3)cn2c1` [Example 8, 6-Methoxy-2-(6-piperazin-1-ylpyridin-3-yl)imidazo[1,2-a]pyridine], the IC50 was determined as 8380 nM.
Turning to `COc1ccc2nc(-c3ccc(N(C)C)nc3)cn2c1` [Example 3, 5-(6-Methoxyimidazo[1,2-a]pyridin-2-yl)-N,N-dimethylpyridin-2-amine], the IC50 was found to be 386 nM.
With `COc1ccc2nc(-c3cnc(OC)c(Cl)c3)cn2c1` [Example 7, 2-(5-Chloro-6-methoxypyridin-3-yl)-6-methoxyimidazo[1,2-a]pyridine], the 50% inhibitory concentration (IC50) is 709 nM.
Next, `COc1ccc2nc(-c3cnc(N4CCOCC4)nc3)cn2c1` [Example 10, 6-Methoxy-2-(2-morpholin-4-ylpyrimidin-5-yl)imidazo[1,2-a]pyridine]: 1590 nM; `O=C(OCCF)c1ccc2nc(-c3ccc(F)nc3)cn2c1` [Example 18, 2-Fluoroethyl 2-(6-fluoropyridin-3-yl)imidazo[2,1-f]pyridine-6-carboxylate]: 17900 nM; `COc1ccc2nc(-c3ccc(OC)nc3)cn2c1` [Example 5, 6-Methoxy-2-(6-methoxypyridin-3-yl)imidazo[1,2-a]pyridine]: 2840 nM.
On to `CNc1ccc(-c2cn3cc(O)ccc3n2)cn1` [Example 2, 2-[6-(Methylamino)pyridin-3-yl]imidazo[1,2-a]pyridin-6-ol], for which the IC50 amounted to 375 nM.
For `COc1ccc2nc(-c3ccc(N4CCN(C(=O)OC(C)(C)C)CC4)nc3)cn2c1` [Example 9, tert-Butyl 4-[5-(6-methoxyimidazo[1,2-c]pyridin-2-yl)pyridin-2-yl]piperazine-1-carboxylate], the IC50 was determined as 1360 nM.
As to `COc1ccc2nc(-c3ccc4[nH]ccc4c3)cn2c1` [Example 11, 2-(1H-Indol-5-yl)-6-methoxyimidazo[1,2-a]pyridine], the half-maximal inhibitory concentration (IC50) was found to be 184 nM.
Take `NC(=O)c1ccc(-c2cn3cc(O)ccc3n2)cn1` [Example 17, 5-(6-Hydroxyimidazo[1,2-a]pyridin-2-yl)pyridine-2-carboxamide]: the IC50 was 2790 nM.
As for `CN(C)c1ccc(-c2cn3cc(C(=O)OCCF)ccc3n2)cn1` [Example 20, 2-Fluoroethyl 2-(6-dimethylaminopyridin-3-yl)imidazo[2,1-f]pyridine-6-carboxylate], the half-maximal inhibitory concentration (IC50) was found to be 16600 nM.
Take `COC(=O)c1ccc2nc(-c3ccc(N(C)C)nc3)cn2c1` [Example 19, Methyl 2-(6-dimethylaminopyridin-3-yl)imidazo[2,1-f]pyridine-6-carboxylate]: the IC50 is 739 nM.
For `CNc1ccc(-c2cn3cc(OC)ccc3n2)cn1` [Example 1, 5-(6-Methoxyimidazo[1,2-a]pyridin-2-yl)-N-methylpyridin-2-amine], the IC50 worked out at 2470 nM.
Under `COc1ccc2nc(-c3cnc(OC)c(F)c3)cn2c1` [Example 6, 2-(5-Fluoro-6-methoxypyridin-3-yl)-6-methoxyimidazo[1,2-a]pyridine] stands 838 nM.
